From patent US12180235B1, “Fabrication of novel nano-sized [4{3,4-bis-[(5-bromo-2-hydroxy-benzylidene)-amino]-phenyl }-phenyl-methanone] Ru(III) complex for pharmaceutical applications” (KING FAISAL UNIVERSITY, priority 2024, dated 2024)
Converted amounts (≈) assume the structure as drawn. Read-outs that look alike come from different tables or passages of the source.

Columns and labels:
Format in all cases: cell-based
Pseudomonas aeruginosa [1] = experiment: Antibacterial screening, agar well diffusion method; settings: 24 hours at 37° C.
Protocol: The susceptibilities of such growth rate of microorganisms were measured in vitro by agar well diffusion method. The tested nano complex was dissolved in dimethylsulfoxide at different concentrations (10 and 20 mg/ml). 1 cm^3 of a 24 h broth culture containing 10^6 CFU/cm^3 was placed in sterile Petri-dishes. Molten nutrient agar (15 cm^3) maintained at 45° C. was then poured into the Petri-dishes and allowed to solidify. Then holes of 6 mm diameter were formed in the agar using a sterile cork borer and these holes were completely filled with the test solutions. The plates were incubated for 24 hours at 37° C. After the incubation period, the zone of inhibition of each well was determined by measuring the zones of growth inhibition (mm) against the test microorganisms with zone reader (Hi Antibiotic zone scale). […] The measurements were made in triplicate for each compound and their average values are reported.

Pseudomonas aeruginosa [2] = experiment: Minimum inhibitory concentration, serial broth dilution (bacteria)
Protocol: (§1) Minimum inhibitory concentrations (MICs) are defined as the lowest concentration of an antimicrobial that will inhibit the visible growth of a microorganism after overnight incubation. MICs are used by diagnostic laboratories mainly to confirm resistance of microorganism to antimicrobial agents and also to monitor the activity of new antimicrobial agents. MIC was determined in vitro in liquid medium by serial broth dilution method.

Aspergillus Flavus [3] = experiment: Minimum inhibitory concentration, serial broth dilution (fungus)
Protocol: as §1

Aspergillus Flavus [4] = experiment: Antifungal screening, well diffusion method; settings: 35° C. for 7 days
Protocol: Antifungal activities of the prepared nano-complex were studied against three fungal cultures using well diffusion method. The tested fungi were inoculated in Sabouraud dextrose broth medium (Hi-Media Mumbai) and incubated at 35° C. for 72 h and subsequently a suspension of about 1.60×10^4-6.00×10^4 c.f.u/ml was introduced agar plates and a sterile glass spreader was used for even distribution of the inoculum. The discs measuring 6 mm in diameter were prepared from Whatman No. 1 filter paper and sterilized by dry heat at 140° C. for 1 h. The sterile discs previously soaked in known concentration of the tested compounds were placed in Sabouraud dextrose Agar (SDA) plates. The plates were inverted and incubated at 35° C. for 7 days. The susceptibility was assessed on the basis of diameter of inhibition against albicans and non-albicans strain of fungi.

Colon cancer cells line = experiment: Cytotoxic activity, Sulfo-Rhodamine-B-stain (SRB) assay; settings: colon cancer cell line, 48 hrs
Protocol: The anticancer activity was made at the National Cancer Institute, Cancer Biology Department, Pharmacology Department, Cairo University. The absorbance or optical density (O.D.) of each well was measured spectrophotometrically at 564 (nm) with an “ELIZA” micro plate reader (Meter tech. Σ 960, “USA”). Evaluation of the cytotoxic activity of the prepared nano-complex was carried out against Colon cancer cells line. The evaluation process was carried out in vitro using the Sulfo-Rhodamine-B-stain (SRB). Cells were placed in 96-multiwell plate (10^4 cells/well) for 24 hrs before processing with the complexes to allow attachment of cell to the wall of the plate. Various concentrations of the compounds under test in DMSO (0, 1, 2.5, 5 and 10 µM) were added to the cell monolayer. Monolayer cells were incubated with the complexes for 48 hrs at 37° C. and in atmosphere of 5% CO2. After 48 hrs, cells were fixed, rinsed, and stained with Sulfo-Rhodamine-B-stain. Excess stain was washed with acetic acid and attached stain was treated with Tris EDTA buffer. Color intensity was measured in an ELISA reader. IC50 was evaluated and potency was calculated with regard to percentage of change of (vistabline standard). The relation between surviving fraction and compound concentration is plotted to get the survival curve of each tumor cell line after the specified compound. […]

Row | MIC (Pseudomonas aeruginosa [2]; read-out: MIC) | Compound | inhibition zone (Pseudomonas aeruginosa [1]) | MIC (Pseudomonas aeruginosa [2]) | MIC (Aspergillus Flavus [3]) | inhibition zone (Aspergillus Flavus [4]) | IC50 (Colon cancer cells line)
1 | – | [4{3,4-bis-[(5-bromo-2-hydroxy-benzylidene)-amino]-phenyl}-phenyl-methanone] Ru(III) complex [prepared nano complex] | 42 mm | 1.5 µg/mL | 2.00 µg/mL | 30 mm | –
2 | – | OC(Cn1cncn1)(Cn1cncn1)c1ccc(F)cc1F [Flucazanol] | – | – | 2.50 µg/mL (≈ 8.16 µM) | 27 mm | –
3 | – | CC[C@]1(O)C[C@@H]2CN(CCc3c([nH]c4ccccc34)[C@@](C(=O)OC)(c3cc4c(cc3OC)N(C)[C@H]3[C@@](O)(C(=O)OC)[C@H](OC(C)=O)[C@]5(CC)C=CCN6CC[C@]43[C@@H]65)C2)C1 [vinblastine] | – | – | – | – | 5.7 µM
4 | 2.25 µg/mL (≈ 6.23 µM) | CC1COc2c(N3CCN(C)CC3)c(F)cc3c(=O)c(C(=O)O)cn1c23 (stereo not drawn) [Ofloxacin] | 38 mm | – | – | – | –
